Laboratory results published in patent US6924309B2 (Children, Youth and Women's Health Service Incorporated, priority 1999, dated 2005).

Columns and labels:
[1] = Petri-dish thin film autoxidation of arachidonic acid with thia fatty acids and sulfides (HPLC)
How it was run: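 Arachidonic acid mixed with each sulfur compound at different ratios, lauric acid as internal standard, cast as thin films on 80 mm glass Petri-dishes. Dishes kept under oxygen in a dark desiccator; residual compounds quantified after 1, 2, 3, 5 and 7 days by reverse-phase HPLC with refractive index detection.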

[2] = Stability of thia fatty acids and sulfides as thin film under oxygen (1H NMR); format: physicochemical; details: darkness, up to six weeks
Protocol: Compounds 110 (4.3 mg) and 106 (6 mg) were each dissolved in 5 ml of dichloromethane and added into 250 ml one-neck flasks. Compound 18 (20 mg) and compounds 19, 108, 109 and 111-112 (14-20 mg) were each dissolved in 10 ml of dichloromethane and added into 500 ml flasks. The solvent dichloromethane was then evaporated with continuous rotation of the flasks, allowing the compounds to form thin films. The flasks were flushed with oxygen, sealed and kept in darkness. The compounds in the flasks were redissolved in chloroform-d and analysed by ^1H NMR every two weeks for up to six weeks.
To examine possible reasons for this lack of antioxidative activity, the chemical stability of compounds 18 and 109 in the absence of arachidonic acid was investigated. For comparison, the stability of compounds 19, 106, 108 and 110-112 was also examined. Each compound was studied as a thin film under oxygen as described above. Samples were removed and analysed by ^1H NMR spectroscopy regularly for up to six weeks. […] This is consistent with compound 109 decomposing in the presence of arachidonic acid, but not alone.

[3] = Thin film autoxidation of arachidonic acid with compounds 16-19 (HPLC)
Description: Subsequently, the autoxidation of compounds 16-19 and their effects on the autoxidation of arachidonic acid were investigated. In these experiments, a thin film assay method was employed. For each reaction, arachidonic acid was mixed with one of the synthetic compounds 16, 17, 18 or 19 at 1:1 ratio with or without the radical initiator, azobisisobutyronitrile (AIBN). A reverse phase HPLC method was used to simultaneously measure the relative amounts of arachidonic acid and the synthetic compounds 16, 17, 18 or 19 recovered following 60 or 70 hours or 7 days of thin film autoxidation.

[4] = ratio arachidonic acid:compound 1:1, 1 day
[5] = ratio arachidonic acid:compound 1:1, 2 days

Chemical stability in the absence of arachidonic acid [2]: decomposed after 7 days
Compound: CCCCC/C=C\C/C=C\C/C=C\C/C=C\CCCCSCC(=O)O [Compound 18, (all-Z)-(eicosa-5,8,11,14-tetraenylthio) acetic acid]
Antioxidant effect on autoxidation of arachidonic acid (in words) [1]: not significantly inhibited | Arachidonic acid (%) recovered following autoxidation in the presence of the compound [1, 4]: 68% | Compound (%) recovered following autoxidation with arachidonic acid [1, 4]: 26% | Arachidonic acid (%) recovered following autoxidation in the presence of the compound [1, 5]: 29% | Compound (%) recovered following autoxidation with arachidonic acid [1, 5]: 7% | Arachidonic acid (%) recovered following autoxidation in the presence of the compound ([1]; ratio arachidonic acid:compound 1:1, 3 days): 10% | Arachidonic acid (%) recovered following autoxidation in the presence of the compound ([1]; ratio arachidonic acid:compound 1:1, 5 days): 7% | Arachidonic acid (%) recovered following autoxidation in the presence of the compound ([1]; ratio arachidonic acid:compound 1:1, 7 days): 5% | Percentage of arachidonic acid recovered in the presence of the compound ([3]; ratio 1:1, 10% AIBN 60 h): 87% | Percentage of compound recovered (with arachidonic acid) ([3]; ratio 1:1, 10% AIBN 60 h): 57% | Percentage of arachidonic acid recovered in the presence of the compound ([3]; ratio 1:1, no additive 70 h): 98% | Percentage of compound recovered (with arachidonic acid) ([3]; ratio 1:1, no additive 70 h): 99% | Percentage of arachidonic acid recovered in the presence of the compound ([3]; ratio 1:1, no additive 7 day): 68% | Percentage of compound recovered (with arachidonic acid) ([3]; ratio 1:1, no additive 7 day): 28% | Autoxidation of arachidonic acid in the presence of the compound (in words) ([3]; ratio 1:1, with or without AIBN): substantial degree of autoxidation
